Test results: PubChem BioAssay (NCI)
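Five compound concentrations were applied to cells in 96-well plates for 48 hours; endpoints were derived by simple linear interpolation of the resulting dose-response curve. GI50 marks 50% less growth. Definition used: TGI = concentration required for complete inhibition of growth.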

Columns and labels:
Experiment in all cases: DTP human tumour cell line panel, 48 h
CCRF-CEM leukemia = test system: CCRF-CEM leukemia
HCC-2998 colon = test system: HCC-2998 colon
HCT-116 colon = test system: HCT-116 colon
HOP-62 NSCLC = test system: HOP-62 NSCLC
MCF7 breast = test system: MCF7 breast
MOLT-4 leukemia = test system: MOLT-4 leukemia
NCI-H460 lung = test system: NCI-H460 lung
OVCAR-4 ovarian = test system: OVCAR-4 ovarian
SNB-19 CNS = test system: SNB-19 CNS
UACC-257 melanoma = test system: UACC-257 melanoma

Row | Compound | TGI (CCRF-CEM leukemia) | TGI (HCC-2998 colon) | TGI (HCT-116 colon) | TGI (HOP-62 NSCLC) | TGI (MCF7 breast) | TGI (MOLT-4 leukemia) | TGI (NCI-H460 lung) | TGI (OVCAR-4 ovarian) | TGI (SNB-19 CNS) | TGI (UACC-257 melanoma) | GI50 (CCRF-CEM leukemia) | GI50 (HCT-116 colon) | GI50 (HOP-62 NSCLC) | GI50 (MCF7 breast) | GI50 (NCI-H460 lung) | GI50 (SNB-19 CNS) | GI50 (UACC-257 melanoma)
1 | COC(=O)c1c(O)ccc2c1c1cc3ccccc3c(O)c1n2CCc1ccc(OC)c(OC)c1 | > 100 µM | 86.8 µM | > 100 µM | > 100 µM | > 100 µM | > 100 µM | > 100 µM | > 100 µM | > 100 µM | > 100 µM | – | – | – | – | – | – | –
2 | CN1CCC(C(O)(c2ccccc2)c2ccc(Br)cc2)CC1 (centres undefined) | > 100 µM | 25.1 µM | 51.1 µM | 83.8 µM | 64.2 µM | 61.3 µM | 62.5 µM | > 100 µM | > 100 µM | 29.7 µM | – | – | – | – | – | – | –
3 | CCc1n[nH]c(=O)n1/N=C(\C)c1ccccc1 | > 100 µM | – | > 100 µM | > 100 µM | > 100 µM | > 100 µM | – | > 100 µM | > 100 µM | > 100 µM | – | – | – | – | – | – | –
4 | CN(CCc1ccccn1)c1ccc2c(c1)C(=O)c1ccccc1-2 | > 100 µM | > 100 µM | > 100 µM | > 100 µM | > 100 µM | – | > 100 µM | > 100 µM | > 100 µM | > 100 µM | – | – | – | – | – | – | –
5 | CC(=O)Nc1cccc(N2C(=O)/C(=C\c3cccc(Oc4ccccc4)c3)SC2c2ccccc2)c1 (centres undefined) | 51.6 µM | > 100 µM | > 100 µM | > 100 µM | > 100 µM | > 100 µM | > 100 µM | > 100 µM | > 100 µM | > 100 µM | – | – | – | – | – | – | –
6 | C=C1C(O)C2(O)OCC34C(CC5C(C)=CC(=O)C(O)C5(C)C23)OC(=O)C(OC(=O)C/C=C/CCCCCCCC)C14 (centres undefined) | 0.166 µM | 0.0308 µM | 0.116 µM | 0.041 µM | – | 0.533 µM | – | – | 0.0335 µM | – | – | – | – | – | – | – | –
7 | CCOc1nc2c(N3CCCC3)nc(N3CCNCC3)nc2nc1NCc1ccccc1 | 3.49 µM | 2.62 µM | 2.14 µM | 2.33 µM | 2.86 µM | 2.8 µM | 2.91 µM | 6.05 µM | 3.45 µM | 3.25 µM | – | – | – | – | – | – | –
8 | O=C(O)c1cc2ccccc2c(N=Nc2ccc(S(=O)(=O)Nc3ncccn3)cc2)c1O | > 100 µM | > 100 µM | > 100 µM | > 100 µM | > 100 µM | > 100 µM | > 100 µM | > 100 µM | > 100 µM | > 100 µM | – | – | – | – | – | – | –
9 | O=C(Cc1nc2ccccc2[nH]c1=O)c1c[nH]c2ccccc12 | > 100 µM | 41.6 µM | 56.2 µM | 68.2 µM | > 100 µM | > 100 µM | 32.4 µM | 72.2 µM | > 100 µM | > 100 µM | – | – | – | – | – | – | –
10 | CC(Oc1ccccc1Cl)C(=O)NN1C(=O)CC(=O)N(c2ccc(Cl)cc2)C1=S (centres undefined) | – | > 100 µM | > 100 µM | > 100 µM | > 100 µM | 95.8 µM | > 100 µM | > 100 µM | > 100 µM | > 100 µM | – | – | – | – | – | – | –
11 | COc1cccc(C23CCN(C)C(CC(O)C2)C3)c1OC (centres undefined) | > 100 µM | – | > 100 µM | > 100 µM | > 100 µM | > 100 µM | – | > 100 µM | > 100 µM | > 100 µM | – | – | – | – | – | – | –
12 | C/C(C=O)=C/[C@@]1(C)O[C@@H](C)[C@@](C)(O)[C@@H]1O | > 100 µM | 48.2 µM | > 100 µM | > 100 µM | > 100 µM | 25.7 µM | 64 µM | > 100 µM | > 100 µM | > 100 µM | – | – | – | – | – | – | –
13 | CN(C)c1ccc(-c2ccc(-c3ccc(C(=N)N)cn3)o2)cc1 | 4.36 µM | – | 2.92 µM | 3.32 µM | 3.52 µM | – | 3.05 µM | – | 3.64 µM | 3.43 µM | 1.8 µM | 1.47 µM | 1.74 µM | 1.61 µM | 1.35 µM | 1.87 µM | 1.77 µM
14 | C#C[C@]1(O)CC[C@H]2[C@@H]3CCc4cc(O)ccc4[C@H]3CC[C@@]21C | > 100 µM | 73.8 µM | > 100 µM | – | – | > 100 µM | 82.5 µM | – | > 100 µM | > 100 µM | – | – | – | – | – | – | –
15 | COc1ccc2nc3ccc(OC)cc3c(SCCCl)c2c1 | 16 µM | > 100 µM | > 43.5 µM | > 78.3 µM | > 47 µM | 16.4 µM | > 100 µM | > 85 µM | > 85.5 µM | > 100 µM | – | – | – | – | – | – | –
16 | Cc1c(-c2ccccc2)[nH]c2cn[nH]c(=O)c12 | > 100 µM | > 100 µM | > 100 µM | > 100 µM | > 100 µM | > 100 µM | > 100 µM | – | > 100 µM | > 100 µM | – | – | – | – | – | – | –
17 | O=[N+]([O-])c1ccc(N=Nc2c(O)[nH]c3ccccc23)c([N+](=O)[O-])c1 | > 100 µM | 44.1 µM | 49.7 µM | 24.2 µM | 80.7 µM | > 100 µM | 37.4 µM | 30.7 µM | 51 µM | 34.6 µM | – | – | – | – | – | – | –
18 | Cc1ccc(-c2cc(-c3ccc(Cl)cc3)nc(/N=C3\C(=O)N(CN(C)C)c4ccccc43)n2)cc1 | > 100 µM | – | > 100 µM | > 100 µM | > 100 µM | 33.5 µM | > 100 µM | > 100 µM | > 100 µM | 94.7 µM | – | – | – | – | – | – | –
19 | O=C1c2c(Br)sc(Br)c2[C@@H](O)[C@H]1O | 6.32 µM | 34.4 µM | 32.4 µM | 30.6 µM | 33 µM | 32.6 µM | 31.8 µM | 29.5 µM | 38.3 µM | 29.3 µM | – | – | – | – | – | – | –
